Results taken from US8273756B2, “Use of modified pyrimidine compounds to promote stem cell migration and proliferation” (University of Central Florida Research Foundation, Inc., priority 2002, dated 2012).
Entries after “also recorded” stand apart in the source; their conditions may differ.

Key:
[1] = system: endogenous neural stem cell populations in the brain; experiment: Endogenous stem cell proliferation in aged rat brain after MS-818 i.p., BrdU immunostaining; format: in vivo; conditions: 3 mg/kg/day i.p. for 5 days
Method: To investigate the effect of MS-818, a pyrimidine derivative, on stem cell population in vivo, MS-818 (3 mg/kg/day, i.p.) was injected for 5 days into aged (27-month old) male Fisher 344 rats. The same volume of saline was injected into control animals. Bromodeoxyuridine (BrdU) (100 mg/kg/day i.p.) was then injected for 3 days. Twenty-four hours after the last injection, the brains were removed and fixed for immunohistochemical detection of the proliferating cells by immunostaining for BrdU.

[2] = system: endogenous retinal stem cell populations; experiment: Endogenous retinal stem cell proliferation after intraocular MS-818, BrdU immunostaining; format: in vivo; conditions: rat; intraocular (vitreous cavity) 10 μg/20 μl, one time injection; after three days

SMILES: CC1Nc2nc(N3CCCCC3)ncc2C1=O.O=C(O)/C=C\C(=O)O (stereo not shown) [MS-818, 2-piperadino-6-methyl-5-oxo-5,6-dihydro(7H) pyrrolo[2,3-d]pyrimidine maleate]
- proliferation and migration of stem cells in the subventricular zone [1]: significant increase not only in the proliferation but also in the migration of stem cells
- number of BrdU positive cells in SVZ (immunohistochemistry) ([1]; vs control without MS-818): increased
- number of BrdU positive cells in cerebral cortex (immunohistochemistry) ([1]; vs control without MS-818): significantly increased
- number of BrdU-positive cells in retina / retinal ciliary marginal zone [2]: dramatic increase; also recorded: clearly increased
